Results as given in patent US20240158391A1, “DERIVATIVES OF 4-(IMIDAZO[1,2-A]PYRIDIN-3-YL)-N-(PYRIDIN-3-YL) PYRIMIDIN-2- AMINE FOR TREATING PROLIFERATIVE DISEASES AND CONDITIONS” (AUCENTRA THERAPEUTICS PTY LTD, priority 2019, published 2024).

How the values were obtained:
CDK7/CyclinH/Mat1 = CDK7/CyclinH/Mat1 (Homo sapiens, UniProt P50613); assay: ADP Glo kinase assay, CDK7/CyclinH/Mat1; type: biochemical; details: for Ki: Km ATP, read-out: Enzymatic inhibition, Ki, CDK7 H; for remaining activity at 1 µM: compound at 1 μM, read-out: Residual enzymatic activity (%) at 1 μM, CDK7 H
CDK7/CyclinH/Mat1, sequence (P50613 whole entry, species assumed): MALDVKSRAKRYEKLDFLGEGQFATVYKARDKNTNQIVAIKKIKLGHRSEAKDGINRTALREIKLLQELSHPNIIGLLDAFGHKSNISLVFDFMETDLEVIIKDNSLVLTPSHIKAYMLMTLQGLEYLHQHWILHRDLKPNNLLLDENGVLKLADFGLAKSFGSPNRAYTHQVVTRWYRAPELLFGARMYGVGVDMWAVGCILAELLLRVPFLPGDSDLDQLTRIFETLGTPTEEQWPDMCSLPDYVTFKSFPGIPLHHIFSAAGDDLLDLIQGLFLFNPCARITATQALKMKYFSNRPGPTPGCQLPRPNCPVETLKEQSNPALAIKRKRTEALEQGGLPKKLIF
CDK7/CyclinH/Mat1, sequence (P51946 whole entry partner, species assumed): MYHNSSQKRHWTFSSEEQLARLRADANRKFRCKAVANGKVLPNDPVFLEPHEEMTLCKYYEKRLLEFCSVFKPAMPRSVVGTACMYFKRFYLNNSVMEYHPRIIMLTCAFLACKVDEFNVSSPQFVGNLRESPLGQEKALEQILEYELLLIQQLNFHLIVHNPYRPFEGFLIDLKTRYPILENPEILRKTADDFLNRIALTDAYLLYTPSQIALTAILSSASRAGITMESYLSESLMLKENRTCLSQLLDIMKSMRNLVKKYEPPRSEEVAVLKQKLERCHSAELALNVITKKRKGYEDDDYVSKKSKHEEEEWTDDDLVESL
CDK7/CyclinH/Mat1, sequence (P51948 whole entry partner, species assumed): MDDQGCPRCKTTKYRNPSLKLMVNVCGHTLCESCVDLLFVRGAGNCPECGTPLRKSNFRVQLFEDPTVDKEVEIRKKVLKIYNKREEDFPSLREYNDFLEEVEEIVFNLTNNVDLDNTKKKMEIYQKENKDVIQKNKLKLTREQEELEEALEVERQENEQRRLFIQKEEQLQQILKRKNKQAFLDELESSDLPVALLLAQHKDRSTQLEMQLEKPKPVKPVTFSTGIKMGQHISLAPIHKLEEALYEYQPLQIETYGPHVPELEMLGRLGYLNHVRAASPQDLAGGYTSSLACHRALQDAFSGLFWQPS
Procedure: (§1) Test compounds are used in 1:3 serial dilutions for 10 concentrations (from 10-0.0005 μM) in 0.5% DMSO. […] The kinase reactions are run for optimised time period at room temperature and then the reaction is stopped by adding 5 μL of ADP Glo reagent.

FLT3-ITD = target: T1, FLT3-ITD (Homo sapiens, UniProt P36888); assay: ADP Glo kinase assay, FLT3-ITD; type: biochemical; details: Km ATP 100 μM, read-out: Enzymatic inhibition, Ki, FLT3-ITD
T1 sequence (P36888 1-993): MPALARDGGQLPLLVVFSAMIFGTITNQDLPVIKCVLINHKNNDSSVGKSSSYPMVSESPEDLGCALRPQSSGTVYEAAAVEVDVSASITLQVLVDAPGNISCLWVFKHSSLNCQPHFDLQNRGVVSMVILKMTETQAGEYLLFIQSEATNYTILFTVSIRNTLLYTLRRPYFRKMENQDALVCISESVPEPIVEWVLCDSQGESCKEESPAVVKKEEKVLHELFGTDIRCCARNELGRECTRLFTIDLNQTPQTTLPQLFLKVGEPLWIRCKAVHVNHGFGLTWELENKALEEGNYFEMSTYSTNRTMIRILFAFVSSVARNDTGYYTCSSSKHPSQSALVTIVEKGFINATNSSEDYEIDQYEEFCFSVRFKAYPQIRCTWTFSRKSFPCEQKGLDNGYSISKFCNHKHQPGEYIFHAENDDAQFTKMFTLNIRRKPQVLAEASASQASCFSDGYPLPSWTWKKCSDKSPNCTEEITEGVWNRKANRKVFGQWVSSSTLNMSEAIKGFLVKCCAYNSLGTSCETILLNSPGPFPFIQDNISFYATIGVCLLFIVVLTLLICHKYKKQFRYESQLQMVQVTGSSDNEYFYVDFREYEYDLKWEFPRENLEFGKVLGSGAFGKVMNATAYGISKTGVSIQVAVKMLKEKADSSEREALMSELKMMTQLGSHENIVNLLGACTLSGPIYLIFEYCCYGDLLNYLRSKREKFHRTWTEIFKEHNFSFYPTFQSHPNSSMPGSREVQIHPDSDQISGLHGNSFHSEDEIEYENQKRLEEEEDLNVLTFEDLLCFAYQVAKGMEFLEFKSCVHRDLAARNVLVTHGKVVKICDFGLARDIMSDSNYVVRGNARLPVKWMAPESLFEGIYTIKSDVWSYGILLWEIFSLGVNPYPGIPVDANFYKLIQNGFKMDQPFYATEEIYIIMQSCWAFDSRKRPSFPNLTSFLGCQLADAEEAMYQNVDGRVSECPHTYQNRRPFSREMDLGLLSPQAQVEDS
Procedure: as §1

CDK6/CyclinD3 = CDK6/CyclinD3 (Homo sapiens, UniProt Q00534); assay: ADP Glo kinase assay, CDK6/CyclinD3; type: biochemical; details: Km ATP, read-out: Enzymatic inhibition, Ki, CDK6 D3
CDK6/CyclinD3, sequence (Q00534 whole entry, species assumed): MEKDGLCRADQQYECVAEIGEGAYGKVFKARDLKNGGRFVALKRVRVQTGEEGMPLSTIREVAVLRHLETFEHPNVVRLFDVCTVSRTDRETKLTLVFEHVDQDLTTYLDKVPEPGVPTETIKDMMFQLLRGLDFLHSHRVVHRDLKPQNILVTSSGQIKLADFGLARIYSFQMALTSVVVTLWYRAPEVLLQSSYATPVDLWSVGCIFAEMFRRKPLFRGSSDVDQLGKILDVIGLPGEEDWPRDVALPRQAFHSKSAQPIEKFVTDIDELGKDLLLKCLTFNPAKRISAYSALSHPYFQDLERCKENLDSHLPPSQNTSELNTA
CDK6/CyclinD3, sequence (P30281 whole entry partner, species assumed): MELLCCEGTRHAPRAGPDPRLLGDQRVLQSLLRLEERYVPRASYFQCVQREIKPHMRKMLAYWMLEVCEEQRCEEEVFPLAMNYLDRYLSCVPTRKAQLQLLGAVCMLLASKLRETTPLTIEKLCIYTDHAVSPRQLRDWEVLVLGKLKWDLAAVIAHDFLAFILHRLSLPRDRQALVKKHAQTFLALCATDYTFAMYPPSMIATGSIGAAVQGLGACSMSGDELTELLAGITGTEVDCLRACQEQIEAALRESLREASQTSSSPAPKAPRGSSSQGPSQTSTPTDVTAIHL
Procedure: as §1

CDK1/CyclinB = CDK1/CyclinB (Homo sapiens, UniProt P06493); assay: ADP Glo kinase assay, CDK1/CyclinB; type: biochemical; details: for Ki: Km ATP, read-out: Enzymatic inhibition, Ki, CDK1 B
CDK1/CyclinB, sequence (P06493 whole entry, species assumed): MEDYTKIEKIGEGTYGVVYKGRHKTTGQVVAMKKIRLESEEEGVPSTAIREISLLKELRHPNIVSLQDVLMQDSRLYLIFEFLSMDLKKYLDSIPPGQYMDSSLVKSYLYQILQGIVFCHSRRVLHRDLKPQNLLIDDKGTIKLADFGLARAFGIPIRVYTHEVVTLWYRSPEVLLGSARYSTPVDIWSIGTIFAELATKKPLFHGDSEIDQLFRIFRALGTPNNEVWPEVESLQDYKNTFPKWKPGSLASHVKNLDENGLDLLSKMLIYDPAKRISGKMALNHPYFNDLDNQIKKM
CDK1/CyclinB, sequence (P14635 whole entry partner, species assumed): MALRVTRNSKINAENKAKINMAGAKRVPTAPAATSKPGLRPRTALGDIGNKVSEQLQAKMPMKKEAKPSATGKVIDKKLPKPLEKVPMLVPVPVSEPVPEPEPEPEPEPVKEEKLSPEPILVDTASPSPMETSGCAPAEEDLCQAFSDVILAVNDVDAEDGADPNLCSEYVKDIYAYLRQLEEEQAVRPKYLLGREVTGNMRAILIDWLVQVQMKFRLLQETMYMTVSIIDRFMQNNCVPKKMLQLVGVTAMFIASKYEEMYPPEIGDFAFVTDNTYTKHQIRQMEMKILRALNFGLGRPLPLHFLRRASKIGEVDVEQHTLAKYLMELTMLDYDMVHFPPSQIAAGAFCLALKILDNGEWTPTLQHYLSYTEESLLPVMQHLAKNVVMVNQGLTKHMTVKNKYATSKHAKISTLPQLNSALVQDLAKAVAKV
Procedure: as §1

CDK2/CyclinA2 = CDK2/CyclinA2 (Homo sapiens, UniProt P24941); assay: ADP Glo kinase assay, CDK2/CyclinA2; type: biochemical; details: for Ki: Km ATP, read-out: Enzymatic inhibition, Ki, CDK2 A; for remaining activity at 1 µM: compound at 1 μM, read-out: Residual enzymatic activity (%) at 1 μM, CDK2 A
Procedure: as §1

CDK9/CyclinT1 = CDK9/CyclinT1 (Homo sapiens, UniProt P50750); assay: ADP Glo kinase assay, CDK9/CyclinT1; type: biochemical; details: for Ki: CDK9/CyclinT1, Km ATP, read-out: Enzymatic inhibition, Ki, CDK9 T1; for inhibition of CDK9 (in words): compared with comparator compounds A, B and C (N-(pyridin-2-yl)pyrimidin-2-amine moiety)
CDK9/CyclinT1, sequence (P50750 whole entry, species assumed): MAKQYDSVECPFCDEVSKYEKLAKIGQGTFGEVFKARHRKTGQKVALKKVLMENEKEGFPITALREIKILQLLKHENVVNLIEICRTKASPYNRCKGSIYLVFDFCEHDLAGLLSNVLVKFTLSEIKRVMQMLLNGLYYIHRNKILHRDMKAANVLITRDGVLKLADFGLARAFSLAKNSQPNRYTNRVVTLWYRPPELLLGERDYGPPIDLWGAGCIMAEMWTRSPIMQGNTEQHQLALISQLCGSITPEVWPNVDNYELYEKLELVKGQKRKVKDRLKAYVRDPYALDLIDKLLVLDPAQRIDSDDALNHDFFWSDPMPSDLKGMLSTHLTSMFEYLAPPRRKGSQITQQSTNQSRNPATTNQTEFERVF
CDK9/CyclinT1, sequence (O60563 whole entry partner, species assumed): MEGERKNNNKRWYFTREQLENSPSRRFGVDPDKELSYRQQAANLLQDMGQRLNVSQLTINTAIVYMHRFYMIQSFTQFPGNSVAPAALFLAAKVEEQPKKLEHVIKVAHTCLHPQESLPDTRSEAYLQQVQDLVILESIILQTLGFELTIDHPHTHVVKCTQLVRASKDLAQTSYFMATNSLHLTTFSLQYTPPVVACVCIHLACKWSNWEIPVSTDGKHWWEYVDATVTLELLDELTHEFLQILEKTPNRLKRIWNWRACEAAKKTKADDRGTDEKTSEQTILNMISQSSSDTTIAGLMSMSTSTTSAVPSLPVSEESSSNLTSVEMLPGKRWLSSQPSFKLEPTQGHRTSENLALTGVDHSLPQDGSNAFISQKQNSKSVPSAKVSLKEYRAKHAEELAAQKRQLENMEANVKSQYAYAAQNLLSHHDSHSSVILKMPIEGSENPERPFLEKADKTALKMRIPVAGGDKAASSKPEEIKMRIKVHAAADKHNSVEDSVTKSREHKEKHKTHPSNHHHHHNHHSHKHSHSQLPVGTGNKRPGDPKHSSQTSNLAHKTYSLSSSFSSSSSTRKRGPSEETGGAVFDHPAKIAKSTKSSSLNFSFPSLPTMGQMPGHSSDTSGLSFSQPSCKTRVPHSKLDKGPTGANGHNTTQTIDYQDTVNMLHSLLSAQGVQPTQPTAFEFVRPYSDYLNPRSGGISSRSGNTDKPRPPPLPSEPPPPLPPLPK
Procedure: as §1

CDK4/CyclinD1 = CDK4/CyclinD1 (Homo sapiens, UniProt P11802); assay: ADP Glo kinase assay, CDK4/CyclinD1; type: biochemical; details: for Ki: Km ATP, read-out: Enzymatic inhibition, Ki, CDK4 D1; for remaining activity at 1 µM: compound at 1 μM, read-out: Residual enzymatic activity (%) at 1 μM, CDK4 D1
CDK4/CyclinD1, sequence (P11802 whole entry, species assumed): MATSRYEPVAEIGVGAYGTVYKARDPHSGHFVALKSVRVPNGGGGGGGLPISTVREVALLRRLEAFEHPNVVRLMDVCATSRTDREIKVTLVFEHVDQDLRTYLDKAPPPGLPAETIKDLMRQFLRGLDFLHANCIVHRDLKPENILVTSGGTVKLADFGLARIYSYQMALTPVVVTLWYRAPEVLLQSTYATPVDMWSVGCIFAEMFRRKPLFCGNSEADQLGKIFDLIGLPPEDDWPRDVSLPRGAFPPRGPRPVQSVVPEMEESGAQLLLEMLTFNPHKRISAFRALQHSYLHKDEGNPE
CDK4/CyclinD1, sequence (P24385 whole entry partner, species assumed): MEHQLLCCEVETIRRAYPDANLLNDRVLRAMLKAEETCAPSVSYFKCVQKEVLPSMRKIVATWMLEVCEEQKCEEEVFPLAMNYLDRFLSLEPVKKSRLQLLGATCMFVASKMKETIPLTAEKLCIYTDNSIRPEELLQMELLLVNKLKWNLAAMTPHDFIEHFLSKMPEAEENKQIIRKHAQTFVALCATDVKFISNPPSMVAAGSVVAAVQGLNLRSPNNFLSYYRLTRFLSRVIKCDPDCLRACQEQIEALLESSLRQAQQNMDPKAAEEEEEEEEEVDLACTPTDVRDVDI
Procedure: as §1

MV-4-11 = assay: Proliferation assay (resazurin, leukemia cell lines), MV-4-11; type: cell-based; details: Homo sapiens, MV4-11, read-out: 72 h Growth inhibition GI50, MV-4-11 cells
Source text: The following compounds were used as comparators.

SMILES | Ki (CDK7/CyclinH/Mat1) | Ki (FLT3-ITD) | Ki (CDK6/CyclinD3) | Ki (CDK1/CyclinB) | Ki (CDK2/CyclinA2) | Ki (CDK9/CyclinT1) | Ki (CDK4/CyclinD1) | GI50 (MV-4-11) | inhibition of CDK9 (in words) (CDK9/CyclinT1) | remaining activity at 1 µM (CDK7/CyclinH/Mat1) | remaining activity at 1 µM (CDK1/CyclinB; compound at 1 μM, read-out: Residual enzymatic activity (%) at 1 μM, CDK1 B) | remaining activity at 1 µM (CDK4/CyclinD1) | remaining activity at 1 µM (CDK2/CyclinA2)
CN1CCN(c2ccc(Nc3nccc(-c4cnc5ccc(Br)cn45)n3)cn2)CC1 [Compound 5, 4-(6-Bromoimidazo[1,2-a]pyridin-3-yl)-N-(6-(4-methylpiperazin-1-yl)pyridin-3-yl)pyrimidin-2-amine] | 2360 nM | 79 nM | 716 nM | 317 nM | 98 nM | 5 nM | 712 nM | 7 nM | – | – | – | – | –
CN1CCN(c2ccc(Nc3nccc(-c4cnc5ccc(-c6ccccc6)cn45)n3)cn2)CC1 [Compound 6, N-(6-(4-Methylpiperazin-1-yl)pyridin-3-yl)-4-(6-phenylimidazo[1,2-a]pyridin-3-yl)pyrimidin-2-amine] | 238 nM | 4 nM | > 5000 nM | 265 nM | 177 nM | < 0.1 nM | 229 nM | 4 nM | dramatically and surprisingly increased the potency of inhibition of CDK9 | – | – | – | –
CN1CCN(c2ccc(Nc3nccc(-c4cnc5ccc(-c6cccnc6)cn45)n3)cn2)CC1 [Compound 7, N-(6-(4-Methylpiperazin-1-yl)pyridin-3-yl)-4-(6-(pyridin-3-yl)imidazo[1,2-a]pyridin-3-yl)pyrimidin-2-amine] | 2730 nM | 4 nM | 2160 nM | 1100 nM | 825 nM | 0.4 nM | > 500 nM | 29 nM | dramatically and surprisingly increased the potency of inhibition of CDK9 | – | – | – | –
CN1CCN(c2ccc(Nc3nccc(-c4cnc5ccc(-c6cncnc6)cn45)n3)cn2)CC1 [Compound 8, N-(6-(4-Methylpiperazin-1-yl)pyridin-3-yl)-4-(6-(pyrimidin-5-yl)imidazo[1,2-a]pyridin-3-yl)pyrimidin-2-amine] | > 5000 nM | 31 nM | > 5000 nM | > 5000 nM | 2860 nM | 6 nM | > 500 nM | 19 nM | – | – | – | – | –
CC(=O)N1CCN(c2ccc(Nc3ncc(F)c(-c4cnc5ccccn45)n3)cn2)CC1 [Compound 10, 1-(4-(5-((5-Fluoro-4-(imidazo[1,2-a]pyridin-3-yl)pyrimidin-2-yl)amino)pyridin-2-yl)piperazin-1-yl)ethan-1-one] | 895 nM | 18 nM | 451 nM | 61 nM | 2 nM | 50 nM | > 500 nM | 6 nM | – | – | – | – | –
CC(=O)N1CCN(c2ccc(Nc3ncc(C)c(-c4cnc5ccccn45)n3)cn2)CC1 [Compound 11, 1-(4-(5-((4-(Imidazo[1,2-a]pyridin-3-yl)-5-methylpyrimidin-2-yl)amino)pyridin-2-yl)piperazin-1-yl)ethan-1-one] | – | 20 nM | 1010 nM | – | 101 nM | 1340 nM | – | 88 nM | – | 20% | 54% | 21% | –
CN1CCN(c2ccc(Nc3nccc(-c4cnc5ccc(F)cn45)n3)cn2)CC1 [Compound 12, 4-(6-Fluoroimidazo[1,2-a]pyridin-3-yl)-N-(6-(4-methylpiperazin-1-yl)pyridin-3-yl) pyrimidin-2-amine] | 1720 nM | 7 nM | 779 nM | 865 nM | 156 nM | 29 nM | 380 nM | 13 nM | – | – | – | – | –
Cc1cnc(Nc2ccc(N3CCNCC3)nc2)nc1-c1cnc2ccccn12 [Compound 13, 4-(Imidazo[1,2-a]pyridin-3-yl)-5-methyl-N-(6-(piperazin-1-yl)pyridin-3-yl)pyrimidin-2-amine] | 410 nM | 6 nM | 299 nM | 500 nM | 170 nM | 494 nM | 408 nM | 7 nM | – | – | – | – | –
Cc1cnc(Nc2ccc(N3CCOCC3)nc2)nc1-c1cnc2ccccn12 [Compound 14, 4-(Imidazo[1,2-a]pyridin-3-yl)-5-methyl-N-(6-morpholinopyridin-3-yl)pyrimidin-2-amine] | 1730 nM | 9 nM | 1600 nM | 150 nM | 64 nM | > 5000 nM | – | 49 nM | – | – | – | 50% | –
Fc1cnc(Nc2ccc(N3CCOCC3)nc2)nc1-c1cnc2ccccn12 [Compound 15, 5-Fluoro-4-(imidazo[1,2-a]pyridin-3-yl)-N-(6-morpholinopyridin-3-yl)pyrimidin-2-amine] | 1630 nM | 15 nM | 1000 nM | 10 nM | 3 nM | 234 nM | 543 nM | 20 nM | – | – | – | – | –
CS(=O)(=O)N1CCN(c2ccc(Nc3nccc(-c4cnc5ccc(-c6ccccc6)cn45)n3)cn2)CC1 [Compound 17, N-(6-(4-(Methylsulfonyl)piperazin-1-yl)pyridin-3-yl)-4-(6-phenylimidazo[1,2-a]pyridin-3-yl)pyrimidin-2-amine] | > 1000 nM | 16 nM | > 5000 nM | > 5000 nM | > 1000 nM | 28 nM | > 500 nM | 6 nM | – | – | – | – | –
CS(=O)(=O)N1CCN(c2ccc(Nc3nccc(-c4cnc5ccc(-c6ccncc6)cn45)n3)cn2)CC1 [Compound 18, N-(6-(4-(Methylsulfonyl)piperazin-1-yl)pyridin-3-yl)-4-(6-(pyridin-4-yl)imidazo[1,2-a]pyridin-3-yl)pyrimidin-2-amine] | – | 27 nM | > 5000 nM | 450 nM | 557 nM | 21 nM | – | 1 nM | – | 28% | – | 47% | –
CS(=O)(=O)N1CCN(c2ccc(Nc3nccc(-c4cnc5ccc(-c6cccnc6)cn45)n3)cn2)CC1 [Compound 19, N-(6-(4-(Methylsulfonyl)piperazin-1-yl)pyridin-3-yl)-4-(6-(pyridin-3-yl)imidazo[1,2-a]pyridin-3-yl)pyrimidin-2-amine] | 1690 nM | 4 nM | > 5000 nM | 776 nM | – | 16 nM | – | 17 nM | – | – | – | 83% | 33%
CS(=O)(=O)N1CCN(c2ccc(Nc3nccc(-c4cnc5ccc(-c6cncnc6)cn45)n3)cn2)CC1 [Compound 20, N-(6-(4-(Methylsulfonyl)piperazin-1-yl)pyridin-3-yl)-4-(6-(pyrimidin-5-yl)imidazo[1,2-a]pyridin-3-yl)pyrimidin-2-amine] | 890 nM | 1450 nM | > 5000 nM | > 5000 nM | – | 56 nM | – | 94 nM | – | – | – | 86% | 41%
CS(=O)(=O)N1CCN(c2ccc(Nc3nccc(-c4cnc5ccc(-c6cccs6)cn45)n3)cn2)CC1 [Compound 21, N-(6-(4-(Methylsulfonyl)piperazin-1-yl)pyridin-3-yl)-4-(6-(thiophen-2-yl)imidazo[1,2-a]pyridin-3-yl)pyrimidin-2-amine] | 3970 nM | 6 nM | > 5000 nM | 635 nM | – | 8 nM | – | 11 nM | – | – | – | 33% | 28%
